Measured values published in patent US20260356819A1, “OXOISOINDOLINYL-SUBSTITUTED […] DERIVATIVE AND USE THEREOF” (GLUETACS THERAPEUTICS (SHANGHAI) CO., LTD., priority 2023, published 2026).

How the values were obtained:
Type in all cases: cell-based
Conditions in all cases: compounds at 50 nM and 500 nM
[1] = molecular target: T1, CK1α (Homo sapiens, UniProt P48729+Q96SW2); assay: Western blot degradation of CK1α in hPBMCs (24 h)
T1 construct: The supernatant was aspirated as the extracted total cell protein; endogenous in cells; host or cells: human peripheral blood mononuclear cells (hPBMCs)
Description: (§1) Conventional Western blot assay was performed to evaluate the effects of the compounds of the present disclosure on the expression of target proteins in cells. • (1) Cell Seeding and Protein Harvesting: Human peripheral blood mononuclear cells (hPBMCs) at a density of 1×10^6 cells/mL were thawed according to the PBMC Recovery Protocol (Milecell Biotechnologies Inc, Shanghai). The cells were then treated with the compounds of the present disclosure (including the compounds listed in Table 1, and the Examples 1-498 compounds) at concentrations of 50 nM and 500 nM. Controls included a negative control (DMSO) and a positive control (the commercial immunomodulatory drug lenalidomide), both processed following the identical experimental protocol as the compounds of the present disclosure. After 24 hours of compounds treatment, cells were harvested and lysed in RIPA protein lysate containing protease inhibitors on ice for 30 min, followed by centrifugation. The supernatant was aspirated as the extracted total cell protein. The protein concentration of the supernatant was determined using the conventional BCA (Bicinchoninic Acid) assay. • (2) To the collected supernatant, 5×SDS sample loading buffer was added, followed by denaturation at 95 °C for 5 minutes. The denatured samples were then separated by SDS-PAGE electrophoresis on a polyacrylamide gel. Proteins were transferred to a nitrocellulose membrane (0.45 μm NC membrane), blocked with blocking buffer at room temperature for 1 hour, and subjected to antibody incubation and development procedures according to the antibody manufacturer's instructions (Cell Signaling Technology).
(§2) Half-Maximal Degradation Concentration value (the drug concentration required for degrading proteins by 50%, abbreviated as DC50) reads method: comparing the grayscale values of Western blot bands from drug-treated samples with those from blank DMSO-treated controls, and identifying the drug concentration range at which the grayscale value is half that of the DMSO-treated control bands.
(§3) DC50 values can be calculated using ImageJ software to measure grayscale values of Western blot bands from drug-treated samples. The concentration-response curve is fitted to estimate the drug concentration corresponding to half the grayscale value.
(§4) Target protein remaining (%) refers to the percentage of target protein remaining in cells after treatment with protein degrader compounds.
(§5) Calculation method for target protein remaining (%): Use ImageJ software to measure grayscale values of Western blot bands from drug (protein degrader)-treated samples. The grayscale value of drug-treated bands is divided by that of internal control protein bands, and the resulting quotient is normalized to obtain the relative percentage of remaining target protein after protein degrader treatment.
(§6) Target protein degradation rate (%)=1−target protein remaining (%).

[2] = molecular target: T2, IKZF1 (Homo sapiens, UniProt Q13422+Q96SW2); assay: Western blot degradation of IKZF1 in hPBMCs (24 h)
T2 construct: The supernatant was aspirated as the extracted total cell protein; endogenous in cells; host or cells: human peripheral blood mononuclear cells (hPBMCs)
Description: as §1, §2, §3, §4, §5, §6

[3] = molecular target: T3, GSPT1 (Homo sapiens, UniProt P15170+Q96SW2); assay: Western blot degradation of GSPT1 in hPBMCs (24 h)
T3 construct: The supernatant was aspirated as the extracted total cell protein; endogenous in cells; host or cells: human peripheral blood mononuclear cells (hPBMCs)
Description: as §1, §2, §3, §4, §5, §6

[4] = molecular target: T4, IKZF3 (Homo sapiens, UniProt Q96SW2+Q9UKT9); assay: Western blot degradation of IKZF3 in hPBMCs (24 h)
T4 construct: The supernatant was aspirated as the extracted total cell protein; endogenous in cells; host or cells: human peripheral blood mononuclear cells (hPBMCs)
Description: as §1, §2, §3, §4, §5, §6

[5] = molecular target: T5, IKZF2 (Homo sapiens, UniProt Q96SW2+Q9UKS7); assay: Western blot degradation of IKZF2 in hPBMCs (24 h)
T5 construct: The supernatant was aspirated as the extracted total cell protein; endogenous in cells; host or cells: human peripheral blood mononuclear cells (hPBMCs)
Description: as §1, §2, §3, §4, §5, §6

T5 sequence (Q9UKS7 whole entry): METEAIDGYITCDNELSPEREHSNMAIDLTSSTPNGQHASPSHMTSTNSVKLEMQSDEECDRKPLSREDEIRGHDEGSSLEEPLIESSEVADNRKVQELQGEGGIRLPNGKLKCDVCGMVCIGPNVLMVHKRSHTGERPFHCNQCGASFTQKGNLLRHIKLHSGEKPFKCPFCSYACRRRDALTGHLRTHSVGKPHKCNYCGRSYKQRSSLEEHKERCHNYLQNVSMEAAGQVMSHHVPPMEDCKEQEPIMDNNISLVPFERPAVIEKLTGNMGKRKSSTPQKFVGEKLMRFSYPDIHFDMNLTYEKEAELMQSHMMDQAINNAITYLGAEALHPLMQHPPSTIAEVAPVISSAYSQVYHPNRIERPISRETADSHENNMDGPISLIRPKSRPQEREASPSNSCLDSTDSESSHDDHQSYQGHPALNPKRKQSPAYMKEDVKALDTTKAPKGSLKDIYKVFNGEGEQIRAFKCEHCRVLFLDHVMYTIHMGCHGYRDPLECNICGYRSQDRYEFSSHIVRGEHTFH
T5 sequence (Q96SW2 whole entry): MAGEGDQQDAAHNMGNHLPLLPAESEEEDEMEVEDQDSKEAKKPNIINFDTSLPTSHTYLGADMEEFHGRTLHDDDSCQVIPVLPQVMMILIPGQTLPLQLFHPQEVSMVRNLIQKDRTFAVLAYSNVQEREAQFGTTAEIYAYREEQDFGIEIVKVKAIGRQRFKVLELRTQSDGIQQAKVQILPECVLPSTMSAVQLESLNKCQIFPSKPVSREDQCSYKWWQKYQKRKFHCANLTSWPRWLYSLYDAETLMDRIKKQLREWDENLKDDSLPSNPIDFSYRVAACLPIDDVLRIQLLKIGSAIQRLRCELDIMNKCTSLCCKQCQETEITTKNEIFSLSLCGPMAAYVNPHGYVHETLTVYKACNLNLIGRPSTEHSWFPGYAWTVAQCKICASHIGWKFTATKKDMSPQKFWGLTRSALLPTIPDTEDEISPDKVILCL
T5 sequence (Q16531 whole entry partner): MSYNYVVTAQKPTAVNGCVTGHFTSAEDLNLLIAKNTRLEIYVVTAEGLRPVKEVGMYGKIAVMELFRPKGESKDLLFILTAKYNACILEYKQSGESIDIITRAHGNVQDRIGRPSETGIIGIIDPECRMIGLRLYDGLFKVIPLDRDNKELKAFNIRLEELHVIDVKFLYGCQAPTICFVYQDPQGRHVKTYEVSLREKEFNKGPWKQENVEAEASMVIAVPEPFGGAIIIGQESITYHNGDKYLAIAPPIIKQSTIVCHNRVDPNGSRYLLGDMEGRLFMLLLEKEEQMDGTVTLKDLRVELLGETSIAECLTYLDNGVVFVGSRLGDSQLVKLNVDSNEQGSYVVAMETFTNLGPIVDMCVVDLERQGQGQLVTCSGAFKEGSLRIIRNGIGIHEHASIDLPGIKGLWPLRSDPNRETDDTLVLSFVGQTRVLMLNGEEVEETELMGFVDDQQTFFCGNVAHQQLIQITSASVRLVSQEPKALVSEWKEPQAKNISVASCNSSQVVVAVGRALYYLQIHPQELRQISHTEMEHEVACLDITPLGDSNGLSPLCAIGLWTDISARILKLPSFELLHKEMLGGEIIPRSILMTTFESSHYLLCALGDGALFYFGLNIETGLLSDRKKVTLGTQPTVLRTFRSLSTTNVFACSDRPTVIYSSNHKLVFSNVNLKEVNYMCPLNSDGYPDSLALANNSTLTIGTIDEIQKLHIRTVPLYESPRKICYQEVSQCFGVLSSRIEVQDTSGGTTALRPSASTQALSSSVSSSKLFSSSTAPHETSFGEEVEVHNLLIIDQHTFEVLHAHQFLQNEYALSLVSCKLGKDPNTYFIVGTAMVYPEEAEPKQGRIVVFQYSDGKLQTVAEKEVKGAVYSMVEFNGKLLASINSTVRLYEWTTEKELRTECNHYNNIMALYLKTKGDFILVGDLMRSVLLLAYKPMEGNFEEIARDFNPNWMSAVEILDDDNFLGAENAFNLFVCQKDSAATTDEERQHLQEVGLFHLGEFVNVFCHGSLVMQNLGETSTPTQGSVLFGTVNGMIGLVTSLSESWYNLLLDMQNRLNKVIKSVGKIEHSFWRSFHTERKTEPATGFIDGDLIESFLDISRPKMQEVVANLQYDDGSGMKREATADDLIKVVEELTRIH
T1 sequence (P48729 whole entry): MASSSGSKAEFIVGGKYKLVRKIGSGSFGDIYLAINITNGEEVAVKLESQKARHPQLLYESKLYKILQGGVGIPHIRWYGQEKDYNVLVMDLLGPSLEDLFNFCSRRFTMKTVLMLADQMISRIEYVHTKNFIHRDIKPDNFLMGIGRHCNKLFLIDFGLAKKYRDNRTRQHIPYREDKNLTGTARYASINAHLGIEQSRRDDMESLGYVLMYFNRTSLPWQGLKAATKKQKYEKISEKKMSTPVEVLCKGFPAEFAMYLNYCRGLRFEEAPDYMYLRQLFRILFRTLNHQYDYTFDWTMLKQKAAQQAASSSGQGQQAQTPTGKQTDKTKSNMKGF
T1 sequence (Q96SW2 whole entry): as the sequence (Q96SW2 whole entry) above
T1 sequence (Q16531 whole entry partner): as the sequence (Q16531 whole entry partner) above
T2 sequence (Q13422 whole entry): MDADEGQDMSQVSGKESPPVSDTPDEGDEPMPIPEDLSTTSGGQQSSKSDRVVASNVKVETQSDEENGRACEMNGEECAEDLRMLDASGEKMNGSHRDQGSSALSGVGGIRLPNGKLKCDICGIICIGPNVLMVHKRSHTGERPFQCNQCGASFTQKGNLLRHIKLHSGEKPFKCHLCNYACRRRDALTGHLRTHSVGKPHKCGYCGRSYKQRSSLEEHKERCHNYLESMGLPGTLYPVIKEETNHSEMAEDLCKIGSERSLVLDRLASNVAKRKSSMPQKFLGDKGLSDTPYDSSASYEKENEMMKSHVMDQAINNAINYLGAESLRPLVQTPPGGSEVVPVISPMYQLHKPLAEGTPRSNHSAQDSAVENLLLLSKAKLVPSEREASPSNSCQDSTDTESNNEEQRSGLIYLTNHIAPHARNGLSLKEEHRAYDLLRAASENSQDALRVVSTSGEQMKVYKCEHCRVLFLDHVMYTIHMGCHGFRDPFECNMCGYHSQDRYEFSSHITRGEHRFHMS
T2 sequence (Q96SW2 whole entry): as the sequence (Q96SW2 whole entry) above
T2 sequence (Q16531 whole entry partner): as the sequence (Q16531 whole entry partner) above
T4 sequence (Q9UKT9 whole entry): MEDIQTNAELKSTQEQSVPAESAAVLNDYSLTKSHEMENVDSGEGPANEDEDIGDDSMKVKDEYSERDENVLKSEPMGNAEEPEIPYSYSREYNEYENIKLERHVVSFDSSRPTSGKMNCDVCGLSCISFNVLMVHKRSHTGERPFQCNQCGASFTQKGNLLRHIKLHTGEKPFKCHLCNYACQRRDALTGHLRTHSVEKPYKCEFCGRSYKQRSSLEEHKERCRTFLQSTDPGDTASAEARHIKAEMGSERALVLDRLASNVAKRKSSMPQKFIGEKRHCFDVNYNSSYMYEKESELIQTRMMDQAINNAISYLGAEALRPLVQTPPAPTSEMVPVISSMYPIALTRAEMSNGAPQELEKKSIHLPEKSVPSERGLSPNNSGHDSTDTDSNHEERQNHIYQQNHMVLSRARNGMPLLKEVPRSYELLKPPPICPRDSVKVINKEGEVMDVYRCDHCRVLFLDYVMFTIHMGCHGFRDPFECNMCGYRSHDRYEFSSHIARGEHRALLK
T4 sequence (Q96SW2 whole entry): as the sequence (Q96SW2 whole entry) above
T4 sequence (Q16531 whole entry partner): as the sequence (Q16531 whole entry partner) above
T3 sequence (P15170 whole entry): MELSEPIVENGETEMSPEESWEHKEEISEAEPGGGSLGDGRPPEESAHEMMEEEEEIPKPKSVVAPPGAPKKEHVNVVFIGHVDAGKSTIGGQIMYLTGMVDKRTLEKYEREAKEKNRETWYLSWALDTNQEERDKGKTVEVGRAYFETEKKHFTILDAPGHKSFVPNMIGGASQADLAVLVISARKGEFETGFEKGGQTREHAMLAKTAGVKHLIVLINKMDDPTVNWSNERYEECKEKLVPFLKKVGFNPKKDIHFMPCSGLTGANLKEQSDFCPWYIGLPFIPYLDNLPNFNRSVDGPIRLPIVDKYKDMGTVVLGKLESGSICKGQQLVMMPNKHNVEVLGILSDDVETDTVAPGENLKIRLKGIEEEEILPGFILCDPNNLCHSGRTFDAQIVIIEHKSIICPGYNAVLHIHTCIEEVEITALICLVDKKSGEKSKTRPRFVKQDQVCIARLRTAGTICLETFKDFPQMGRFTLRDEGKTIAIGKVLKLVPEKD
T3 sequence (Q96SW2 whole entry): as the sequence (Q96SW2 whole entry) above
T3 sequence (Q16531 whole entry partner): as the sequence (Q16531 whole entry partner) above

Compound	CK1α substrate protein remaining % [1]	IKZF1 substrate protein remaining % [2]	GSPT1 substrate protein remaining % [3]	IKZF3 substrate protein remaining % [4]	IKZF2 substrate protein remaining % [5]
O=C1CCN(N2C(=O)c3ccc(CN4CCN(c5cc(Cl)ccn5)CC4)cc3C2=O)C(=O)N1 [GT-05354, 5-((4-(4-chloropyridin-2-yl)piperazin-1-yl)methyl)-2-(2,4-dioxotetrahydropyrimidin-1(2H)-yl)isoindoline-1,3-dione]	B (80%< substrate protein remaining % ≤100%)	B (80%< substrate protein remaining % ≤100%)	A (0% ≤ substrate protein remaining % ≤80%)	–	–
O=C1CCN(N2C(=O)c3ccc(CN4CCN(c5ccccn5)CC4)cc3C2=O)C(=O)N1 [GT-05351, 2-(2,4-dioxotetrahydropyrimidin-1(2H)-yl)-5-((4-(pyridin-2-yl)piperazin-1-yl)methyl)isoindoline-1,3-dione]	B (80%< substrate protein remaining % ≤100%)	B (80%< substrate protein remaining % ≤100%)	–	B (80%< substrate protein remaining % ≤100%)	A (0% ≤ substrate protein remaining % ≤80%)
O=C1CCN(N2Cc3cc(CN4CCN(c5ncc(Cl)cc5Cl)CC4)ccc3C2=O)C(=O)N1 [GT-05356, 1-(5-((4-(3,5-dichloropyridin-2-yl)piperazin-1-yl)methyl)-1-oxoisoindolin-2-yl)dihydropyrimidine-2,4(1H,3H)-dione]	B (80%< substrate protein remaining % ≤100%)	B (80%< substrate protein remaining % ≤100%)	–	B (80%< substrate protein remaining % ≤100%)	–
O=C1CCN(N2Cc3cc(CN4CCN(c5nccc(F)c5F)CC4)ccc3C2=O)C(=O)N1 [GT-05357, 1-(5-((4-(3,4-difluoropyridin-2-yl)piperazin-1-yl)methyl)-1-oxoisoindolin-2-yl)dihydropyrimidine-2,4(1H,3H)-dione]	B (80%< substrate protein remaining % ≤100%)	B (80%< substrate protein remaining % ≤100%)	–	B (80%< substrate protein remaining % ≤100%)	B (80%< substrate protein remaining % ≤100%)
O=C1CCN(N2Cc3cc(CN4CCN(c5ccc(C(F)(F)F)cn5)CC4)ccc3C2=O)C(=O)N1 [GT-05176, 1-(1-oxo-5-((4-(5-(trifluoromethyl)pyridin-2-yl)piperazin-1-yl)methyl)isoindolin-2-yl)dihydropyrimidine-2,4(1H,3H)-dione]	B (80%< substrate protein remaining % ≤100%)	B (80%< substrate protein remaining % ≤100%)	–	–	B (80%< substrate protein remaining % ≤100%)
O=C1CCN(N2Cc3cc(CN4CCN(c5nccc(I)c5F)CC4)ccc3C2=O)C(=O)N1 [GT-05406, 1-(5-((4-(3-fluoro-4-iodopyridin-2-yl)piperazin-1-yl)methyl)-1-oxoisoindolin-2-yl)dihydropyrimidine-2,4(1H,3H)-dione]	B (80%< substrate protein remaining % ≤100%)	B (80%< substrate protein remaining % ≤100%)	A (0% ≤ substrate protein remaining % ≤80%)	B (80%< substrate protein remaining % ≤100%)	–
O=C1CCN(N2Cc3cc(CN4CCN(c5ncccc5C(F)(F)F)CC4)ccc3C2=O)C(=O)N1 [GT-05174, 1-(1-oxo-5-((4-(3-(trifluoromethyl)pyridin-2-yl)piperazin-1-yl)methyl)isoindolin-2-yl)dihydropyrimidine-2,4(1H,3H)-dione]	B (80%< substrate protein remaining % ≤100%)	B (80%< substrate protein remaining % ≤100%)	–	B (80%< substrate protein remaining % ≤100%)	–
